Laboratory results published in patent publication US9688765B2, “Methods using RANK/RANKL antagonist antibodies for treating pain” (Antecip Bioventures II LLC, priority 2014, dated 2017).

Legend:
RANKL expression = details: cultured bone marrow stromal cell line; cited from earlier work
[1] = system: pain associated with arthritis; test: Treatment of patient suffering from pain associated with arthritis; format: in vivo, human; details: patient two, 60 mg subcutaneously, within 6 months after treatment
Description: PROLIA® (denosumab, 60 mg) is administered subcutaneously to a patient suffering from pain associated with arthritis. […] IMBRUVICA® (ibrutinib, 420 mg taken orally once daily (three 140 mg capsules once daily)) is administered to a patient suffering from pain associated with arthritis. […] IMBRUVICA® (ibrutinib, 560 mg taken orally once daily, (four 140 mg capsules once daily)) is administered to a patient suffering from pain associated with arthritis.

[2] = system: pain associated with osteoarthritis; test: Treatment of patient suffering from pain associated with osteoarthritis; format: in vivo, human; details: patient one, 60 mg subcutaneously, within 6 months after treatment
Description: PROLIA® (denosumab, 60 mg) is administered subcutaneously to a patient suffering from pain associated with osteoarthritis. […] The injection is repeated every six months. IMBRUVICA® (ibrutinib, 420 mg taken orally once daily (three 140 mg capsules once daily)) is administered to a patient suffering from pain associated with osteoarthritis. […] IMBRUVICA® (ibrutinib, 560 mg taken orally once daily, (four 140 mg capsules once daily)) is administered to a patient suffering from pain associated with osteoarthritis.

neuropathic pain = test: Treatment of patient suffering from neuropathic pain; format: in vivo, human; details: patient one, 60 mg subcutaneously, within 6 months after treatment
Description: PROLIA® (denosumab, 60 mg) is administered subcutaneously to a patient suffering from neuropathic pain. […] The injection is repeated every six months.

low back pain = test: Treatment of patient suffering from low back pain; format: in vivo, human; details: patient two, 60 mg subcutaneously, within 6 months after treatment
Description: PROLIA® (denosumab, 60 mg) is administered subcutaneously to a patient suffering from low back pain. […] The injection is repeated every six months. IMBRUVICA® (ibrutinib, 420 mg taken orally once daily (three 140 mg capsules once daily)) is administered to a patient suffering from low back pain. […] IMBRUVICA® (ibrutinib, 560 mg taken orally once daily, (four 140 mg capsules once daily)) is administered to a patient suffering from low back pain.

[3] = system: complex regional pain syndrome; test: Treatment of patient suffering from complex regional pain syndrome; format: in vivo, human; details: patient one, 60 mg subcutaneously, within 6 months after treatment
Description: PROLIA® (denosumab, 60 mg) is administered subcutaneously to a patient suffering from complex regional pain syndrome. […] The injection is repeated every six months.

[4] = system: arthritis pain (mechanical hyperalgesia); test: Rat complete Freund's adjuvant (CFA) model of arthritis pain; format: in vivo; details: day 14 post CFA
Description: The effect of RANK/RANKL antagonism on arthritis pain was examined in the rat complete Freund's adjuvant (CFA) model of arthritis pain. In this model, injection of 100% complete Freund's adjuvant (CFA) in a 75 μL volume into the left hind paws is followed by a 10-14 day period to allow for the development of arthritis pain. Animals were orally administered zoledronic acid 9 mg/kg (or 54 mg/m^2), or zoledronic acid 60 mg/kg (or 360 mg/m^2) to produce RANK/RANKL antagonism, divided in three equal daily doses on the first three days post CFA injection, or vehicle (control). Drug was dissolved in distilled water and prepared fresh daily. Animals were fasted prior to dosing.
Arthritis pain (mechanical hyperalgesia) in the vehicle and drug-treated animals was evaluated on day 14 post CFA injection using a digital Randall-Selitto device (dRS; IITC Life Sciences, Woodland Hills, Calif.). […] Paw compression threshold was measured by applying increasing pressure to the plantar surface of the hind paw with a dome-shaped tip placed between the 3rd and 4th metatarsus. […]
Reversal of arthritis pain in the ipsilateral (CFA-injected) paw was calculated according to the formula: % reversal=(ipsilateral drug threshold−ipsilateral vehicle threshold)/(contralateral vehicle threshold−ipsilateral vehicle threshold)×100. […]

Compound: O=P(O)(O)C(O)(Cc1cnc2ccccn12)P(=O)(O)O [Minodronic acid, minodronic acid]
- RANKL expression (RANKL expression): inhibit[] RANKL expression

Compound: denosumab [PROLIA]
- pain experienced by patient [1]: less pain
- pain experienced by patient [2]: less pain
- pain experienced by patient (neuropathic pain): less pain
- pain experienced by patient (low back pain): less pain
- pain experienced by patient [3]: less pain

Compound: O=P(O)(O)C(O)(Cn1ccnc1)P(=O)(O)O [zoledronic acid]
- reversal of arthritis pain ([4]; oral 9 mg/kg (54 mg/m^2) total in three daily doses): 33%
- reversal of arthritis pain ([4]; oral 60 mg/kg (360 mg/m^2) total in three daily doses): 54%
